Read-outs that look alike come from different tables or passages of the source. Starred links: 1 amine or outer side, 2 acyl side, 3 side chain; linkers in the order of their positions; H or OH if unused. Non-standard residues stand in square brackets, D forms with d. Residues, ends and D or L forms follow the SMILES beside them. Groups on a side chain read outwards from the residue. *: point of attachment. C20 diacid = O=C(O)CCCCCCCCCCCCCCCCCCC(=O)*; Pro(4S-NH2) = N[C@@H]1CN[C@H](C(=O)O)C1; γGlu = O=C(O)[C@H](CCC(=O)[*:2])N[*:1]; Nle = CCCC[C@H](N)C(=O)O; AEEA = NCCOCCOCC(=O)O

Test [1] deals with T1, hCRHR2 (Homo sapiens, UniProt Q13324).
T1 sequence (Q13324 1-411): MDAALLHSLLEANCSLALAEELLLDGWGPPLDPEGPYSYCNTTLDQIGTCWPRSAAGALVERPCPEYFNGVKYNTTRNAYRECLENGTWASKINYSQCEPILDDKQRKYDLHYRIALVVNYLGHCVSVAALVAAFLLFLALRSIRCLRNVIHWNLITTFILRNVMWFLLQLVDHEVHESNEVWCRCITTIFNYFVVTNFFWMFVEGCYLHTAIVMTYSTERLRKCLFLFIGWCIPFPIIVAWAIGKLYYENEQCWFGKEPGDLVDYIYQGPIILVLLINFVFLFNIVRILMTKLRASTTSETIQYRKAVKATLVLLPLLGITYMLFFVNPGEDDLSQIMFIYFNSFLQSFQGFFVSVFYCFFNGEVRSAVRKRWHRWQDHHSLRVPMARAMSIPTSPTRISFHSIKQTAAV
The experiment in a line: HTRF cAMP assay, determination of hCRHR2 potency (peptide libraries 5 conc., purified peptides 11 conc.). It is filed as cell-based. Summed up:
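Read-out was HTRF competitive cAMP detection (d2-labelled cAMP, cryptate-labelled antibody) in suspended, freshly thawed CHO-K1 cells stably carrying human CRHR2.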
(In TR-FRET formats the signal depends on donor and acceptor labels being close together.)

Test [2] concerns the target T2, hCRHR1 (Homo sapiens, UniProt P34998).
T2 sequence (P34998 24-415): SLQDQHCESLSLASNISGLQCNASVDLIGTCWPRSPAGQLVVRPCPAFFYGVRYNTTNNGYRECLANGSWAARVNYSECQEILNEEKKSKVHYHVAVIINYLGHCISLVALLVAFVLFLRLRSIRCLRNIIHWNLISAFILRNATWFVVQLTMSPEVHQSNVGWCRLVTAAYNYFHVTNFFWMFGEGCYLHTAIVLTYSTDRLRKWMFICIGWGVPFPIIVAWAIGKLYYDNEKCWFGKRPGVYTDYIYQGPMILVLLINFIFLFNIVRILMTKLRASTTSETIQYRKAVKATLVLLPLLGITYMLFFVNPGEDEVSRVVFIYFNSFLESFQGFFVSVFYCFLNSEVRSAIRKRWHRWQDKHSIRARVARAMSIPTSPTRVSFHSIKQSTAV
Put plainly: HTRF cAMP assay, determination of hCRHR1 potency (peptide libraries 5 conc., purified peptides 11 conc.). It is filed as cell-based. Summed up: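 Cellular cAMP was read by time-resolved FRET between d2-labelled cAMP and cryptate anti-cAMP antibody. The cells were freshly thawed suspension CHO-K1 cells stably expressing human CRHR1.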

Setting [3] is: library peptides, matched molecular pairs L vs Nle in position X^38, read-out: Potency hCRHR2 pEC50 (converted).
Setting [4] is: library peptides, matched molecular pairs L vs Nle in position X^38, read-out: Potency hCRHR1 pEC50 (converted).
[5] abbreviates: Table 3, matched molecular pairs X^38 L vs Nle, peptide library of Example 4, read-out: hCRHR2 pEC50 (converted).
[6] abbreviates: Table 3, matched molecular pairs X^38 L vs Nle, peptide library of Example 4, read-out: hCRHR1 pEC50 (converted).

Take `CCCC[C@H](NC(=O)[C@@H](NC(=O)[C@H](CCC(=O)O)NC(=O)[C@H](C)NC(=O)[C@H](CC(N)=O)NC(=O)[C@@H](NC(=O)[C@H](CCCCNC(=O)COCCOCCNC(=O)COCCOCCNC(=O)CC[C@H](NC(=O)CC[C@H](NC(=O)CCCCCCCCCCCCCCCCCCC(=O)O)C(=O)O)C(=O)O)NC(=O)[C@H](C)NC(=O)[C@H](CCC(N)=O)NC(=O)[C@H](CCC(=O)O)NC(=O)[C@H](CCCNC(=N)N)NC(=O)[C@H](C)NC(=O)[C@@H](NC(=O)[C@H](CCCNC(=N)N)NC(=O)[C@H](C)NC(=O)[C@H](CCCNC(=N)N)NC(=O)[C@H](C)NC(=O)[C@H](CCC(N)=O)NC(=O)[C@H](CCC(=O)O)NC(=O)[C@H](CC(C)C)NC(=O)[C@H](CC(C)C)NC(=O)[C@@H](NC(=O)[C@H](CCC(N)=O)NC(=O)[C@H](CC(C)C)NC(=O)[C@H](CC(C)C)NC(=O)CNC(=O)[C@@H](NC(=O)[C@@H]1C[C@H](N)CN1C(=O)[C@@H](NC(=O)[C@H](CC(=O)O)NC(=O)[C@H](CC(C)C)NC(=O)[C@H](CO)NC(=O)[C@H](CC(C)C)NC(=O)[C@@H](NC(=O)[C@@H](N)[C@@H](C)CC)C(C)C)C(C)C)[C@@H](C)CC)[C@@H](C)CC)C(C)C)[C@@H](C)O)[C@@H](C)CC)C(=O)N[C@@H](C)C(=O)N[C@@H](CCC(=O)O)C(=O)N[C@H](C(N)=O)C(C)C` [compound 77] (H-IVLSLDV[Pro(4S-NH2)]IGLLQILLEQARARVAREQAK([AEEA-AEEA-γGlu-γGlu-C20 diacid])TNAEI[Nle]AEV-NH2): the EC50 in test [1] (setting [3]) was 0.501 nM; in test [2] (setting [4]), 3.16 nM.

Take `CCCC[C@H](NC(=O)[C@@H](NC(=O)[C@H](CCC(=O)O)NC(=O)[C@H](C)NC(=O)[C@H](CC(N)=O)NC(=O)[C@@H](NC(=O)[C@H](CCCCNC(=O)COCCOCCNC(=O)COCCOCCNC(=O)CC[C@H](NC(=O)CC[C@H](NC(=O)CCCCCCCCCCCCCCCCCCC(=O)O)C(=O)O)C(=O)O)NC(=O)[C@H](C)NC(=O)[C@H](CCC(N)=O)NC(=O)[C@H](CCC(=O)O)NC(=O)[C@H](CCCNC(=N)N)NC(=O)[C@H](C)NC(=O)[C@H](CCC(N)=O)NC(=O)[C@H](CCCNC(=N)N)NC(=O)[C@H](C)NC(=O)[C@H](CCCNC(=N)N)NC(=O)[C@H](C)NC(=O)[C@H](CCC(N)=O)NC(=O)[C@H](CCC(=O)O)NC(=O)[C@H](CC(C)C)NC(=O)[C@H](CC(C)C)NC(=O)[C@@H](NC(=O)[C@H](CCC(N)=O)NC(=O)[C@H](CC(C)C)NC(=O)[C@H](CC(C)C)NC(=O)CNC(=O)[C@@H](NC(=O)[C@@H]1CCCN1C(=O)[C@@H](NC(=O)[C@H](CC(=O)O)NC(=O)[C@H](CC(C)C)NC(=O)[C@H](CO)NC(=O)[C@H](CC(C)C)NC(=O)[C@@H](NC(=O)[C@@H](N)[C@@H](C)CC)C(C)C)C(C)C)[C@@H](C)CC)[C@@H](C)CC)[C@@H](C)O)[C@@H](C)CC)C(=O)N[C@@H](C)C(=O)N[C@@H](CCC(=O)O)C(=O)N[C@H](C(N)=O)[C@@H](C)CC` [SEQ ID NO: 30] (H-IVLSLDVPIGLLQILLEQARARQAREQAK([AEEA-AEEA-γGlu-γGlu-C20 diacid])TNAEI[Nle]AEI-NH2): the EC50 is 0.126 nM in test [1] (setting [5]) and 1580 nM in test [2] (setting [6]).

On to `CCCC[C@H](NC(=O)[C@@H](NC(=O)[C@H](CCC(=O)O)NC(=O)[C@H](C)NC(=O)[C@H](CC(N)=O)NC(=O)[C@@H](NC(=O)[C@H](CCCCNC(=O)COCCOCCNC(=O)COCCOCCNC(=O)CC[C@H](NC(=O)CC[C@H](NC(=O)CCCCCCCCCCCCCCCCCCC(=O)O)C(=O)O)C(=O)O)NC(=O)[C@H](C)NC(=O)[C@H](CCC(N)=O)NC(=O)[C@H](CCC(=O)O)NC(=O)[C@H](CCCNC(=N)N)NC(=O)[C@H](CCC(N)=O)NC(=O)[C@H](C)NC(=O)[C@H](CCCNC(=N)N)NC(=O)[C@H](C)NC(=O)[C@H](CCCNC(=N)N)NC(=O)[C@H](C)NC(=O)[C@H](CCC(N)=O)NC(=O)[C@H](CCC(=O)O)NC(=O)[C@H](CC(C)C)NC(=O)[C@H](CC(C)C)NC(=O)[C@@H](NC(=O)[C@H](CCC(N)=O)NC(=O)[C@H](CC(C)C)NC(=O)[C@H](CC(C)C)NC(=O)CNC(=O)[C@@H](NC(=O)[C@@H]1CCCN1C(=O)[C@@H](NC(=O)[C@H](CC(=O)O)NC(=O)[C@H](CC(C)C)NC(=O)[C@H](CO)NC(=O)[C@H](CC(C)C)NC(=O)[C@@H](NC(=O)[C@@H](N)[C@@H](C)CC)C(C)C)C(C)C)[C@@H](C)CC)[C@@H](C)CC)[C@@H](C)O)[C@@H](C)CC)C(=O)N[C@@H](C)C(=O)N[C@@H](CCC(=O)O)C(=O)N[C@H](C(N)=O)[C@@H](C)CC` [compound 65] (H-IVLSLDVPIGLLQILLEQARARAQREQAK([AEEA-AEEA-γGlu-γGlu-C20 diacid])TNAEI[Nle]AEI-NH2), for which the figures for the EC50 in test [1] (setting [3]) and in test [2] (setting [4]) were 0.1 nM and 158 nM, respectively.

As to `CCCC[C@H](NC(=O)[C@@H](NC(=O)[C@H](CCC(=O)O)NC(=O)[C@H](C)NC(=O)[C@H](CC(N)=O)NC(=O)[C@@H](NC(=O)[C@H](CCCCNC(=O)COCCOCCNC(=O)COCCOCCNC(=O)CC[C@H](NC(=O)CC[C@H](NC(=O)CCCCCCCCCCCCCCCCCCC(=O)O)C(=O)O)C(=O)O)NC(=O)[C@H](C)NC(=O)[C@H](CCCNC(=N)N)NC(=O)[C@H](CCC(=O)O)NC(=O)[C@H](CCCNC(=N)N)NC(=O)[C@H](C)NC(=O)[C@H](CO)NC(=O)[C@H](CCC(=O)O)NC(=O)[C@H](C)NC(=O)[C@H](CCCNC(=N)N)NC(=O)[C@H](C)NC(=O)[C@H](CCC(N)=O)NC(=O)[C@H](CCC(=O)O)NC(=O)[C@H](CC(C)C)NC(=O)[C@H](CC(C)C)NC(=O)[C@@H](NC(=O)[C@H](CCC(N)=O)NC(=O)[C@H](CC(C)C)NC(=O)[C@H](CC(C)C)NC(=O)CNC(=O)[C@@H](NC(=O)[C@@H]1CCCN1C(=O)[C@@H](NC(=O)[C@H](CC(=O)O)NC(=O)[C@H](CC(C)C)NC(=O)[C@H](CO)NC(=O)[C@H](CC(C)C)NC(=O)[C@@H](NC(=O)[C@@H](N)[C@@H](C)CC)C(C)C)C(C)C)[C@@H](C)CC)[C@@H](C)CC)[C@@H](C)O)[C@@H](C)CC)C(=O)N[C@@H](C)C(=O)N[C@@H](CCC(=O)O)C(=O)N[C@H](C(N)=O)[C@@H](C)CC` [SEQ ID NO: 22] (H-IVLSLDVPIGLLQILLEQARAESARERAK([AEEA-AEEA-γGlu-γGlu-C20 diacid])TNAEI[Nle]AEI-NH2), the EC50 in test [1] (setting [5]) is 0.158 nM; in test [2] (setting [6]), 5010 nM.

For `CCCC[C@H](NC(=O)[C@@H](NC(=O)[C@H](CCC(=O)O)NC(=O)[C@H](C)NC(=O)[C@H](CC(N)=O)NC(=O)[C@@H](NC(=O)[C@H](CCCCNC(=O)COCCOCCNC(=O)COCCOCCNC(=O)CC[C@H](NC(=O)CC[C@H](NC(=O)CCCCCCCCCCCCCCCCCCC(=O)O)C(=O)O)C(=O)O)NC(=O)[C@H](C)NC(=O)[C@H](CCCNC(=N)N)NC(=O)[C@H](CCC(=O)O)NC(=O)[C@H](CCCNC(=N)N)NC(=O)[C@H](C)NC(=O)[C@H](C)NC(=O)[C@H](CCCNC(=N)N)NC(=O)[C@H](C)NC(=O)[C@H](CCCNC(=N)N)NC(=O)[C@H](C)NC(=O)[C@H](CCC(N)=O)NC(=O)[C@H](CCC(=O)O)NC(=O)[C@H](CC(C)C)NC(=O)[C@H](CC(C)C)NC(=O)[C@@H](NC(=O)[C@H](CCC(N)=O)NC(=O)[C@H](CC(C)C)NC(=O)[C@H](CC(C)C)NC(=O)CNC(=O)[C@@H](NC(=O)[C@@H]1CCCN1C(=O)[C@@H](NC(=O)[C@H](CC(=O)O)NC(=O)[C@H](CC(C)C)NC(=O)[C@H](CO)NC(=O)[C@H](CC(C)C)NC(=O)[C@@H](NC(=O)[C@@H](N)[C@@H](C)CC)C(C)C)C(C)C)[C@@H](C)CC)[C@@H](C)CC)[C@@H](C)O)[C@@H](C)CC)C(=O)N[C@@H](C)C(=O)N[C@@H](CCC(=O)O)C(=O)N[C@H](C(N)=O)C(C)C` [compound 67] (H-IVLSLDVPIGLLQILLEQARARAARERAK([AEEA-AEEA-γGlu-γGlu-C20 diacid])TNAEI[Nle]AEV-NH2), the EC50 is 0.126 nM in test [1] and 2000 nM in test [2].

The values are drawn from EP4810052A2, “HCRHR2 SELECTIVE POLYPEPTIDES” (Gubra A/S, priority 2023, dated 2026).
